Test results from ChEMBL document CHEMBL3603819, “Targeting zoonotic viruses: Structure-based inhibition of the 3C-like protease from bat coronavirus HKU4--The likely reservoir host to the human coronavirus that causes Middle East Respiratory Syndrome (MERS)” (Bioorg Med Chem, 2015).

The compounds below were run on Tylonycteris bat coronavirus HKU4. Conditions: at 100 µM.

Compared with CC(C)(C)NC(=O)C(c1cccnc1)N(C(=O)Cc1c[nH]c2ccccc12)c1ccc(OCF)cc1 (configuration not stated), CC(C)(C)NC(=O)C(c1ccsc1)N(C(=O)Cc1c[nH]c2ccccc12)c1ccc(OCF)cc1 (configuration not stated) is lower in inhibition: 52% for the first, 25% for the second.

Compared with CC(C)(C)NC(=O)C(c1cc[nH]n1)N(C(=O)c1ccco1)c1ccc(C(C)(C)C)cc1 (configuration not stated), CC(C)(C)NC(=O)C(c1c[nH]cn1)N(C(=O)c1ccco1)c1ccc(C(C)(C)C)cc1 (configuration not stated) is lower in inhibition: 11% for the first, 9% for the second.

First: CC(C)Oc1ccc(N(C(=O)c2ccco2)C(C(=O)NC(C)(C)C)c2cccnc2)cc1 (configuration not stated)
Second: CCC(C)Oc1ccc(N(C(=O)c2ccco2)C(C(=O)NC(C)(C)C)c2cccnc2)cc1 (configuration not stated)
The inhibition of the first is lower: 13% for the first, 20% for the second.

First: CC(C)(C)NC(=O)C(c1cccnc1)N(C(=O)Cc1c[nH]c2ccccc12)c1ccc(C(C)(C)C)cc1 (configuration not stated)
Second: CC(C)c1ccc(N(C(=O)Cc2c[nH]c3ccccc23)C(C(=O)NC(C)(C)C)c2cccnc2)cc1 (configuration not stated)
The inhibition of the first is higher: 79% for the first, 78% for the second.

Compared with CC(C)(C)NC(=O)C(c1ccsc1)N(C(=O)c1n[nH]c2ccccc12)c1ccc(OC(F)F)cc1 (configuration not stated), CC(C)(C)NC(=O)C(c1ccsc1)N(C(=O)c1n[nH]c2ccccc12)c1ccc(F)cc1 (configuration not stated) is lower in inhibition: 17% for the first, 11% for the second.

Going from CC(C)(C)NC(=O)C(c1ccsc1)N(C(=O)c1ccc(C#N)cc1)c1ccc(F)cc1 (configuration not stated) to CC(C)(C)NC(=O)C(c1ccsc1)N(C(=O)c1ccc(C#N)cc1)c1ccc(C(C)(C)C)cc1 (configuration not stated), the inhibition rises from 13% to 18%.

Going from CCC(=O)Nc1ccc(N(C(=O)Cn2c(C)nc3ccccc32)C(C(=O)NC(C)(C)C)c2ccsc2)cc1 (configuration not stated) to Cc1nc2ccccc2n1CC(=O)N(c1ccc(NS(C)(=O)=O)cc1)C(C(=O)NC(C)(C)C)c1ccsc1 (configuration not stated), the inhibition rises from 8% to 13%.

Going from Cc1noc(C)c1-c1ccc(N(C(=O)c2ccco2)C(C(=O)NC(C)(C)C)c2cccnc2)cc1 (configuration not stated) to CC(C)(C)NC(=O)C(c1cccnc1)N(C(=O)c1ccco1)c1ccc(-c2c(F)cccc2F)cc1 (configuration not stated), the inhibition falls from 28% to 23%.

Compared with O=C(Cn1nnc2ccccc21)N(Cc1ccsc1)c1ccc(-c2ccccc2)cc1, O=C(Cn1nnc2ccccc21)N(Cc1ccsc1)c1ccc(-c2cccnc2)cc1 is higher in inhibition: 21% for the first, 90% for the second.

Compared with CC(C)(C)NC(=O)C(c1cccnc1)N(C(=O)c1ccc(Cl)cc1)c1ccc(C(C)(C)C)cc1 (configuration not stated), CC(C)(C)NC(=O)C(c1cccnc1)N(C(=O)c1ccc(F)cc1)c1ccc(C(C)(C)C)cc1 (configuration not stated) is lower in inhibition: 27% for the first, 21% for the second.

Going from CC(C)c1ccc(N(C(=O)Cc2cccc3ccccc23)C(C(=O)NC(C)(C)C)c2cccnc2)cc1 (configuration not stated) to CC(C)(C)NC(=O)C(c1cccnc1)N(C(=O)Cc1cccc2ccccc12)c1ccc(F)cc1 (configuration not stated), the inhibition falls from 26% to 22%.

Compared with CC(C)(C)NC(=O)C(c1cccnc1)N(C(=O)c1cccc(O)c1)c1ccc(C(C)(C)C)cc1 (configuration not stated), CC(C)(C)NC(=O)C(c1cccnc1)N(C(=O)c1ccc(O)cc1)c1ccc(C(C)(C)C)cc1 (configuration not stated) is higher in inhibition: 10% for the first, 11% for the second.

Compared with CCCOc1ccc(N(C(=O)c2ccco2)C(C(=O)NC(C)(C)C)c2cccnc2)cc1 (configuration not stated), CCOc1ccc(N(C(=O)c2ccco2)C(C(=O)NC(C)(C)C)c2cccnc2)cc1 (configuration not stated) is higher in inhibition: 10% for the first, 12% for the second.

First: CC(C)(C)NC(=O)[C@H](c1cccnc1)N(C(=O)c1c[nH]cn1)c1ccc(C(C)(C)C)cc1
Second: CC(C)(C)NC(=O)[C@@H](c1cccnc1)N(C(=O)c1c[nH]cn1)c1ccc(C(C)(C)C)cc1
The inhibition of the first is lower: 44% for the first, 93% for the second.

Going from CC(C)(C)NC(=O)C(c1cccnc1)N(C(=O)c1ncc[nH]1)c1ccc(C(C)(C)C)cc1 (configuration not stated) to CC(C)(C)NC(=O)C(c1cccnc1)N(C(=O)c1cnccn1)c1ccc(C(C)(C)C)cc1 (configuration not stated), the inhibition rises from 22% to 41%.

Going from Cc1nc2ccccc2n1CC(=O)N(c1ccc(C(C)(C)C)cc1)C(C(=O)NC(C)(C)C)c1ccsc1 (configuration not stated) to Cc1nc2ccccc2n1CC(=O)N(c1ccc(N)cc1)C(C(=O)NC(C)(C)C)c1ccsc1 (configuration not stated), the inhibition falls from 19% to 14%.

First: CC(C)COC(=O)Nc1ccc(N(C(=O)Cn2nnc3ccccc32)C(C(=O)NC(C)(C)C)c2ccsc2)cc1 (configuration not stated)
Second: CC(C)C(=O)Nc1ccc(N(C(=O)Cn2nnc3ccccc32)C(C(=O)NC(C)(C)C)c2ccsc2)cc1 (configuration not stated)
The inhibition of the first is lower: 19% for the first, 76% for the second.

First: CC(C)(C)NC(=O)[C@H](c1cccnc1)N(C(=O)c1ccco1)c1ccc(C(C)(C)C)cc1
Second: CC(C)(C)NC(=O)C(c1cccnc1)N(C(=O)c1ccco1)c1ccc(C(C)(C)C)cc1 (configuration not stated)
The inhibition of the first is higher: 65% for the first, 11% for the second.

Going from CC(C)c1ccc(N(C(=O)Cc2cccc3ccccc23)C(C(=O)NC(C)(C)C)c2ccsc2)cc1 (configuration not stated) to CC(C)(C)NC(=O)C(c1ccsc1)N(C(=O)Cc1cccc2ccccc12)c1ccc(OCF)cc1 (configuration not stated), the inhibition rises from 13% to 17%.

CC(C)(C)NC(=O)C(c1ccsc1)N(C(=O)c1cccc2c1CCCC2)c1ccc(C(C)(C)C)cc1 (configuration not stated) and CC(C)(C)NC(=O)C(c1ccsc1)N(C(=O)c1cccc2c1CCCC2)C1CC1 (configuration not stated) are the same in inhibition: 14% for the first, 14% for the second.

First: O=C(Nc1ccc(N(Cc2ccsc2)C(=O)Cn2nnc3ccccc32)cc1)C1CCCCC1
Second: CC(C)(C)OC(=O)n1cccc1-c1ccc(N(Cc2ccsc2)C(=O)Cn2nnc3ccccc32)cc1
The inhibition of the first is higher: 88% for the first, 31% for the second.

Compared with CC(C)(C)NC(=O)C(c1cccnc1)N(C(=O)Cc1cnc[nH]1)c1ccc(C(C)(C)C)cc1 (configuration not stated), CC(C)(C)NC(=O)C(c1cccnc1)N(C(=O)c1ccncc1)c1ccc(C(C)(C)C)cc1 (configuration not stated) is lower in inhibition: 24% for the first, 13% for the second.

First: CC(C)(C)NC(=O)C(c1cccnc1)N(C(=O)c1ccc(C(F)(F)F)cn1)C1CC1 (configuration not stated)
Second: CC(C)(C)NC(=O)C(c1cccnc1)N(C(=O)c1ccc(C(F)(F)F)cn1)c1ccc(F)cc1 (configuration not stated)
The inhibition of the first is higher: 42% for the first, 29% for the second.

Compared with O=C(NCc1ccccc1)C(c1cccc(F)c1)N(C(=O)Cn1nnc2ccccc21)C1CC2CCC1C2 (configuration not stated), O=C(NCc1ccccc1)C(c1cccc(F)c1)N(C(=O)Cn1nnc2ccccc21)C12CC3CC(CC(C3)C1)C2 (configuration not stated) is higher in inhibition: 12% for the first, 16% for the second.

First: CC(C)(C)NC(=O)C(c1ccsc1)N(C(=O)c1ccco1)C1CC1 (configuration not stated)
Second: CC(C)(C)NC(=O)C(c1ccsc1)N(C(=O)c1ccc(C#N)cc1)C1CC1 (configuration not stated)
The inhibition of the first is lower: 18% for the first, 20% for the second.

First: CCC(C)c1ccc(N(C(=O)c2ccco2)[C@@H](C(=O)NC(C)(C)C)c2cccnc2)cc1 (some centres not stated)
Second: CC(C)c1ccc(N(C(=O)c2ccco2)C(C(=O)NC(C)(C)C)c2cccnc2)cc1 (configuration not stated)
The inhibition of the first is lower: 20% for the first, 34% for the second.

Going from CC(C)(C)NC(=O)C(c1cccnc1)N(C(=O)c1ccco1)c1ccc(Oc2ccccc2)cc1 (configuration not stated) to CC(C)(C)NC(=O)C(c1cccnc1)N(C(=O)c1ccco1)c1ccc(-c2ccccc2)cc1 (configuration not stated), the inhibition rises from 19% to 22%.

Going from CC(C)(C)NC(=O)C(c1cccnc1)N(C(=O)c1ccco1)c1ccc(OC(F)F)cc1 (configuration not stated) to CC(C)(C)NC(=O)C(c1ccsc1)N(C(=O)c1ccco1)c1ccc(OC(F)F)cc1 (configuration not stated), the inhibition falls from 31% to 13%.

First: CC(C)c1ccc(N(C(=O)c2ccco2)C(C(=O)NC(C)(C)C)c2ccsc2)cc1 (configuration not stated)
Second: CC(C)c1ccc(N(C(=O)c2ccc(C(F)(F)F)nc2)C(C(=O)NC(C)(C)C)c2ccsc2)cc1 (configuration not stated)
The inhibition of the first is higher: 18% for the first, 15% for the second.

Going from CC(C)(C)NC(=O)C(c1cccnc1)N(C(=O)CC(F)(F)F)c1ccc(C(C)(C)C)cc1 (configuration not stated) to CC(C)(C)NC(=O)C(c1ccnnc1)N(C(=O)c1ccco1)c1ccc(C(C)(C)C)cc1 (configuration not stated), the inhibition rises from 13% to 35%.

First: CC(C)c1ccc(N(C(=O)c2n[nH]c3ccccc23)C(C(=O)NC(C)(C)C)c2cccnc2)cc1 (configuration not stated)
Second: CC(C)(C)NC(=O)C(c1cccnc1)N(C(=O)c1ccco1)c1ccc(-c2ccccn2)cc1 (configuration not stated)
The inhibition of the first is higher: 21% for the first, 15% for the second.

Compared with CC(C)(C)NC(=O)C(c1cccnc1)N(C(=O)Cc1cccnc1)c1ccc(OCF)cc1 (configuration not stated), CC(C)(C)NC(=O)C(c1cccnc1)N(C(=O)Cc1cccc2ccccc12)c1ccc(OCF)cc1 (configuration not stated) is higher in inhibition: 18% for the first, 21% for the second.

CC(C)(C)NC(=O)C(c1cccnc1)N(C(=O)c1ccc(C#N)cc1)c1ccc(OCF)cc1 (configuration not stated) and CC(C)(C)NC(=O)C(c1cccnc1)N(C(=O)c1ccc(C(F)(F)F)nc1)c1ccc(OCF)cc1 (configuration not stated) are the same in inhibition: 15% for the first, 15% for the second.

Compared with CC(C)(C)NC(=O)C(c1ccsc1)N(C(=O)Cn1cnc2ccccc21)c1ccc(NS(C)(=O)=O)cc1 (configuration not stated), CC(=O)Nc1ccc(N(C(=O)Cn2nnc3ccccc32)C(C(=O)NC(C)(C)C)c2ccsc2)cc1 (configuration not stated) is higher in inhibition: 28% for the first, 53% for the second.

Going from CC(=O)Nc1ccc(N(C(=O)Cn2nnc3ccccc32)C(C(=O)NC(C)(C)C)c2cccc(F)c2)cc1 (configuration not stated) to CC(=O)Nc1ccc(N(C(=O)Cn2nnc3ccccc32)C(C(=O)NCc2ccccc2)c2cccc(F)c2)cc1 (configuration not stated), the inhibition falls from 71% to 32%.

First: CCC(=O)Nc1ccc(N(C(=O)Cn2ccnc2C)C(C(=O)NC(C)(C)C)c2ccsc2)cc1 (configuration not stated)
Second: Cc1nccn1CC(=O)N(c1ccc(C(C)(C)C)cc1)C(C(=O)NC(C)(C)C)c1ccsc1 (configuration not stated)
The inhibition of the first is higher: 19% for the first, 11% for the second.

First: COc1ncc(-c2ccc(N(Cc3ccsc3)C(=O)Cn3nnc4ccccc43)cc2)cn1
Second: CC(C)(C)NC(=O)C(c1ccsc1)N(C(=O)Cn1nnc2ccccc21)c1ccc(NC(=O)c2ccccc2)cc1 (configuration not stated)
The inhibition of the first is higher: 83% for the first, 79% for the second.

First: CC(C)(C)NC(=O)C(c1ccsc1)N(C(=O)Cc1c[nH]c2ccccc12)c1ccc(C(C)(C)C)cc1 (configuration not stated)
Second: CC(C)(C)NC(=O)C(c1ccsc1)N(C(=O)Cc1c[nH]c2ccccc12)C1CC1 (configuration not stated)
The inhibition of the first is higher: 31% for the first, 17% for the second.

Compared with CC(C)(C)NC(=O)C(c1cccnc1)N(C(=O)c1ccco1)C12CC3CC(CC(C3)C1)C2 (configuration not stated), CC(C)(C)NC(=O)C(c1cccnc1)N(C(=O)c1ccco1)C1CCCCC1 (configuration not stated) is lower in inhibition: 18% for the first, 6% for the second.

First: CC(C)(C)NC(=O)C(c1cccnc1)N(C(=O)c1ccco1)c1ccc(NS(C)(=O)=O)cc1 (configuration not stated)
Second: CC(C)(C)NC(=O)C(c1cccnc1)N(C(=O)c1ccco1)c1ccc(-c2cncnc2)cc1 (configuration not stated)
The inhibition of the first is lower: 12% for the first, 14% for the second.

Compared with CC(C)(C)NC(=O)C(c1ccncc1)N(C(=O)c1ccco1)c1ccc(C(C)(C)C)cc1 (configuration not stated), CC(C)(C)NC(=O)C(c1cccnc1)N(C(=O)c1ccco1)c1ccc(-c2cccn2C(=O)OC(C)(C)C)cc1 (configuration not stated) is lower in inhibition: 28% for the first, 17% for the second.

First: CC(C)(C)NC(=O)C(c1cccnc1)N(C(=O)Cc1cccnc1)C1CC1 (configuration not stated)
Second: CC(C)(C)NC(=O)C(c1cccnc1)N(C(=O)Cc1ccco1)C1CC1 (configuration not stated)
The inhibition of the first is higher: 48% for the first, 43% for the second.

CC(C)C(=O)Nc1ccc(N(C(=O)Cn2nnc3ccccc32)C(C(=O)NCc2ccccc2)c2cccc(F)c2)cc1 (configuration not stated) and CC(C)(C)NC(=O)C(c1cccnc1)N(C(=O)c1ccco1)c1ccc(-c2ccccc2C#N)cc1 (configuration not stated) are the same in inhibition: 62% for the first, 62% for the second.

CC(C)(C)NC(=O)C(c1cccnc1)N(C(=O)c1ccco1)c1ccc(-c2ccc(F)c(F)c2)cc1 (configuration not stated) showed an inhibition of 12%.
